Data: ChEMBL document CHEMBL4680271, “COVID-19: Drug Targets and Potential Treatments” (J Med Chem, 2020)

Legend:
[1] = target: Procathepsin L (Homo sapiens) (UniProt P07711); assay: Inhibition of Cathepsin L in HEK293 cells harboring human ACE2 assessed as reduction in SARS-CoV-2 S pseudovirions entry into host cell pretreated for 1 hr followed by viral infection and measured after overnight incubation by luciferase method; format: cell-based; settings: concentration not given here
SARS-CoV-2 = assay: Antiviral activity against nCoV-2019 BetaCoV/Wuhan/WIV04/2019 infected in African green monkey VeroE6 cells assessed as reduction in viral yield preincubated for 1 hr followed by viral infection and further replacement of fresh medium containing compound and measured at 48 hrs post infection by qRT-PCR method; format: functional, organism-based; settings: Severe acute respiratory syndrome coronavirus 2, BetaCoV/Wuhan/WIV04/2019, Vero C1008

Procathepsin L (Homo sapiens), sequence (P07711 114-333 limits assumed): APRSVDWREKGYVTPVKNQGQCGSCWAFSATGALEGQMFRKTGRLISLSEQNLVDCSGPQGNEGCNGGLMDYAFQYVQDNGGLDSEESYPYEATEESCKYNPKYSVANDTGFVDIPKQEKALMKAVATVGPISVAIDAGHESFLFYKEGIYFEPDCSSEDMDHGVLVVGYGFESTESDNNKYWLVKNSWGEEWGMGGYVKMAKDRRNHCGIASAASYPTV

Compound	inhibition [1]	EC50 (SARS-CoV-2)
CCc1ccccc1NC(=O)CSC(=O)NNC(=O)[C@H](Cc1c[nH]c2ccccc12)NC(=O)OC(C)(C)C	> 76%	
Nc1nc2c(ncn2CCC(CO)CO)c(=O)[nH]1 [PENCICLOVIR]		96 µM
